Test results taken from PubChem BioAssay (NCI).
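How tested: cells in 96-well plates exposed to compound for 48 hours at five concentrations. GI50 = concentration required for 50% inhibition of growth. The concentration for full growth arrest is given as TGI.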

Tests used:
Experiment in all cases: inhibition of tumour cell growth, NCI panel, 48 h
[1] = test system: HT29 colon
[2] = test system: RPMI-8226 leukemia
[3] = test system: LOX IMVI melanoma
[4] = test system: OVCAR-8 ovarian
[5] = test system: HOP-92 NSCLC
[6] = test system: IGROV1 ovarian
[7] = test system: CCRF-CEM leukemia
[8] = test system: OVCAR-5 ovarian
[9] = test system: K-562 leukemia
[10] = test system: M14 melanoma

Compound | GI50 [1] [µM] | TGI [1] [µM] | GI50 [2] [µM] | TGI [2] [µM] | GI50 [3] [µM] | TGI [3] [µM] | GI50 [4] [µM] | TGI [4] [µM] | GI50 [5] [µM] | TGI [5] [µM] | GI50 [6] [µM] | TGI [6] [µM] | GI50 [7] [µM] | TGI [7] [µM] | GI50 [8] [µM] | TGI [8] [µM] | GI50 [9] [µM] | TGI [9] [µM] | GI50 [10] [µM] | TGI [10] [µM]
O=C(/C=C/c1ccco1)c1cc(F)c(Cl)cc1Cl | 24.3 | 52.1 | 13.8 | 39.9 | 22.4 | 58.2 | 24.5 | 68.3 | 18.1 | 39.6 | 17.2 | 41 | 18.8 | 47.5 | 22.5 | 48.9 | 30.2 | > 100 | 19.5 | 38.4
CCCCCCCC/C=C/CCCCCCCC1=NC(C)(C)CN1CC(C)O (centres undefined) | 1.59 | 3.09 | 2.28 | 5.91 | 1.52 | 2.88 | 1.97 | 3.9 | 1.21 | 5.58 | 1.45 | 2.84 | 2.24 | 5.97 | 3.6 | 10.4 | 1.44 | 3.27 | 1.79 | 3.35
CN(C)c1ccc(/C=C/c2ccnc3c(O)cccc23)cc1 | 11.7 | > 100 | 0.482 | > 100 | 0.313 | > 100 | 0.352 | > 100 | 0.211 |  | 0.389 | > 100 | 0.333 | > 100 | 6.66 | > 100 | 0.364 | > 100 | 0.304 | 1.58
CN1CCC(COc2cnc(-c3cccc(Cn4nc(-c5cccc(C#N)c5)ccc4=O)c3)nc2)CC1 | 2.04 | 4.66 | 2.64 | 9.21 | 1.93 | 4.09 | 3.27 | 12.8 | 1.02 | 12.6 | 6.8 | 25.2 | 2.56 | 19.6 | 7.69 | 27.5 | 1.74 | 4.32 | 1.96 | 3.64
O=C1CC[C@H](N2C(=O)c3cccc4c(Cc5ccc(CN6CCOCC6)cc5)ccc2c34)C(=O)N1 | 28.9 | > 100 | 9.18 | > 100 | 26.1 | > 100 | 56.6 | > 100 | 8.14 | > 100 | > 100 | > 100 | 55.9 | > 100 | > 100 | > 100 | 10.2 | > 100 | 62 | > 100
C[C@]12CC[C@@H]3c4cc(OC(F)F)c(O)cc4CC[C@H]3[C@@H]1CC[C@@H]2OS(N)(=O)=O | 0.846 | 17.8 | 0.568 | 46.9 | 0.585 | 22.6 | 1.55 | 68.1 | 6.84 | 79.2 | 0.687 | > 100 | 0.393 | > 100 | 3.51 | > 100 | 0.38 | > 100 | 0.511 | 25.9
O=C1C(Cl)=C(Sc2nnc3c4ccccc4c4ccccc4c3n2)C(=O)c2ccccc21 |  | 62 |  | 39.1 |  | 17.2 |  | 29.6 |  | 33.2 |  | 21.2 |  | 14.5 |  | 45.3 |  | > 59.3 |  | 35
Nc1nc2c(ncn2C2CCC(CO)O2)c(=O)n1C(=O)c1ccccc1 (centres undefined) |  | > 100 |  | > 100 |  | > 100 |  | > 100 |  | > 100 |  | > 100 |  | > 100 |  | > 100 |  | > 100 |  | > 100
CC1=Nc2ccccc2NC(c2ccoc2)C1 (centres undefined) |  | > 100 |  | > 100 |  | > 100 |  | > 100 |  | > 100 |  | > 100 |  | > 100 |  | > 100 |  | > 100 |  | > 100
C=C(C)[C@@H]1CC[C@]2(COCCC#N)CC[C@]3(C)[C@H](CC[C@@H]4[C@@](C)(CCCNCCC#N)[C@H](C(=C)C)CC[C@]43C)[C@@H]12 | 7.88 | 19.8 | 10.7 | 31.4 | 8.47 | 16.7 | 12.1 | 31.8 | 7.03 | 28.5 | 13.1 | > 50 | 10.8 | 38.5 | 13.4 | 44.1 | 8.94 | 31.6 | 14.7 | > 50
O=C1/C(=N\O)c2ccccc2S1(=O)=O |  | > 100 |  | > 100 |  | > 100 |  | > 100 |  | > 100 |  | > 100 |  | > 100 |  | > 100 |  | > 100 |  | > 100
COc1cc2nccc(Oc3ccc(NC(=O)NC4CC4)c(Cl)c3)c2cc1C(N)=O | > 100 | > 100 | 22.4 | > 100 | 70.2 | > 100 | 17.5 | > 79.1 | 7.06 | 38.3 | 30.6 | > 100 | 62.6 | > 100 | 47.4 | > 100 | 3.63 | > 100 | 51 | > 100
Cc1c(O)c2ccccc2oc1=O |  | > 100 |  | > 100 |  | > 100 |  | > 100 |  | > 100 |  | > 100 |  | > 100 |  | > 100 |  | > 100 |  | > 100
Cc1cc(Cl)cc2c(N=Nc3ccc(S(N)(=O)=O)cc3)c(O)[nH]c12 | > 25 | > 25 | > 25 | > 25 | > 25 | > 25 | > 25 | > 25 | > 25 | > 25 | > 25 | > 25 | > 25 | > 25 | > 25 | > 25 | > 25 | > 25 | > 25 | > 25
